“Also recorded” adds a separate entry of the source. Marks after values point to notes of the source that are not given here.
Assays:
TgCRND8 mice [1] = assay: Morris water maze spatial reference memory test; type: in vivo, mouse; details: for spatial learning performance compared with non-Tg littermates / spatial learning performance compared with untreated TgCRND8 littermates: 28 days of treatment from 5 months of age, tested at 6 months
Procedure: Behavioural tests: Morris Water Maze testing was performed as previously described. After non-spatial pre-training, mice underwent place discrimination training for 5 days with 4-trials per day, followed by a cued visible platform to rule out general motivational, learning deficits and motor problems, and a probe trial to evaluate memory. […] Open field test for motor activity was preformed as described previously. Duration of walking, pausing and grooming were analyzed as indices of spontaneous locomotor activity. Sensorimotor function was examined with an EconomexTM accelerating rotarod (Columbus Instruments, Columbus, Ohio), as described elsewhere. The rod was set to accelerate at a rate of 0.2 r.p.m./s, from an initial, constant speed of 5 r.p.m. Latency to fall was recorded in four daily trials, conducted at 30 min intervals. All mice were trained for seven days before testing. The test day performance score for each animal was obtained by summing its latency to fall over the four trials Behavioral tests. Morris water maze testing was carried out as previously described. After nonspatial pretraining, mice underwent place discrimination training for 5 d with four trials per day, followed by a cued visible platform trial and a probe trial. An open-field test for motor activity was carried out as described previously. Sensorimotor function was assessed with an Economex accelerating rotarod (Columbus Instruments) as previously described. Behavioural tests. Morris Water Maze testing was performed as previously described. After non-spatial pre-training, mice underwent place discrimination training for 5 days with 4-trials per day, followed by a cued visible platform to rule out general motivational, learning deficits and motor problems, and a probe trial to evaluate memory. The probe trial was conducted at 72 h after the last testing, and used an annulus-crossing index to assess spatial recall. The annulus-crossing index measures the number of passes over the original platform position relative to passes over the other three quadrants. […] Open field test for motor activity was performed as described previously

[2] = test system: transgenic TauP301L mouse model; assay: Synaptophysin quantification in TgTauP301L mice; type: in vivo; details: TgTauP301L mice after treatment
Procedure: Synaptophysin immunohistochemical staining was performed on 3 evenly spaced saggital sections of paraformaldehyde-fixed treated and control mice. Sections were immunolabelled for synaptophysin with anti-synaptophysin IgG (1:40; Roche, Laval, PQ). Digital images were captured and analyzed as described above. Within each section, three randomly chosen 100 μm2 areas of the CA1 region of the hippocampus were counted for synaptophysin reactive cell bodies and boutons. The results are expressed as the mean of the number of reactive bodies and boutons per 100 μm2 [33, 34].
Synaptophysin quantification. Immunohistochemical staining was carried out for synaptophysin on three evenly spaced sagittal sections of paraformaldehyde-fixed treated and control mice. Sections were immunolabeled for synaptophysin with synaptophysin-specific IgG (1:40; Roche). Digital images were captured and analyzed as described above. Within each section, three randomly chosen 100 μm2 areas of the CA1 region of the hippocampus were counted for synaptophysin-reactive cell bodies and boutons. The results are expressed as the mean of the number of reactive bodies and boutons per 100 μm2 [33, 34].

TgCRND8 mice [3] = assay: Cerebral amyloid plaque burden (anti-Aβ immunostaining, image analysis); type: in vivo, mouse; details: for amyloid burden in hippocampus and cerebral cortex: TgCRND8 mice at six months of age
Procedure: Cerebral amyloid burden. […] To generate sets of systematic uniform random sections, 5 μm serial sections were collected across the entire hemisphere. Sets of sections at 50 μm intervals were used for analyses (10-14 sections/set). Plaques were identified after antigen retrieval with formic acid, and incubation with primary anti-Aβ antibody (Dako M-0872), followed by secondary antibody (Dako StreptABCcomplex/horseradish kit). End products were visualized with DAB and were counter-stained with luxol fast blue. Amyloid plaque burden was assessed with Leco IA-3001 image analysis software interfaced with Leica microscope and Hitachi KP-M1U CCD video camera. Openlab imaging software (Improvision, Lexington, Mass.) was then used to convert micrographs to binary images for plaque number and plaque area determinations. Vascular amyloid burden was defined as amyloid originating from or surrounding blood vessels and was analysed similarly. Cerebral Aβ burden. […] Sets of sections at […] intervals for analyses (10-14 sections per set) were used. Plaques with primary Aβ-specific antibody (Dako M-0872) were identified and visualized with DAB. AP plaque burden was assessed with Openlab imaging software (Improvision) and used to convert micrographs to binary images for determinations of plaque number and plaque area. Vascular Aβ burden was defined as Aβ plaques originating from or surrounding blood vessels and was analyzed similarly. Cerebral Aβ burden. […] To generate sets of systematic uniform random sections, 5 μm serial sections were collected across the entire hemisphere. Sets of sections at 50 μm intervals were used for analyses (10-14 sections/set). Plaques were identified after antigen retrieval with formic acid, and incubation with primary anti-Aβ antibody (Dako M-0872), followed by secondary antibody (Dako StreptABCcomplex/horseradish kit). End products were visualized with DAB and were counter-stained with luxol fast blue. Aβ plaque burden was assessed with Leco IA-3001 image analysis software interfaced with Leica microscope and Hitachi KP-M1U CCD video camera. Openlab imaging software (Improvision, Lexington, Mass.) was then used to convert micrographs to binary images for plaque number and plaque area determinations. Vascular Aβ burden was defined as Aβ plaques originating from or surrounding blood vessels and was analyzed similarly.

[4] = test system: transgenic TauP301L mouse model of frontotemporal dementia; assay: Astrogliosis in transgenic TauP301L mice; type: in vivo; details: transgenic Tau (P301L) mice
Procedure: Gliosis Quantitation. Five randomly selected, evenly spaced, sagittal sections were collected from paraformaldehyde-fixed and frozen hemispheres of treated and control mice. Sections were immunolabelled for astrocytes with anti-rat GFAβ IgG2a (Dako; diluted 1:50) and for microglia with anti-rat CD68 IgG2b (Dako; 1:50). Digital images were captured using a Coolsnap digital camera (Photometrics, Tuscon, Ariz.) mounted to a Zeiss, Axioscope 2 Plus microscope. Images were analysed using Openlab 3.08 imaging software (Improvision, Lexington Mass.). Quantification of gliosis. Five randomly selected, evenly spaced sagittal sections from paraformaldehyde-fixed and frozen hemispheres of treated and control mice were collected. Sections were immunolabeled for astrocytes with an antibody against rat GFAβ IgG2a (Dako; diluted 1:50) and for microglia with an antibody to rat CD68 IgG2b (Dako; 1:50). Digital images were captured using a Coolsnap digital camera (Photometrics) mounted to a Zeiss, Axioscope 2 Plus microscope. Images were analyzed using Openlab 3.08 imaging software (Improvision).

[5] = listed as scyllocyclohexanehexol
[6] = TgCRND8 mice treated for 2 months, ending at 7 months of age
[7] = prophylactic, 6 weeks to 4 months of age
[8] = prophylactic, 6 weeks to 6 months of age
[9] = 1 month Treatment: TgCRND8 mice, oral from 5 to 6 months of age
[10] = 4-month Prophylactic: TgCRND8 mice, oral from 6 weeks to 4 months of age
[11] = 6-month Prophylactic: TgCRND8 mice, oral from 6 weeks to 6 months of age
[12] = TgCRND8 mice with pre-existing disease, 28 days from 5 months of age
[13] = TgCRND8 mice, 28 day course at 5 months of age, vs untreated
[14] = TgCRND8 mice, oral, 28 days from 5 months of age, analysed at 6 months

## OC1C(O)C(O)C(O)C(O)C1O (centres unmarked) [scyllo-cyclohexanehexol, 1,3,5/2,4,6-(scyllo-) cyclohexanehexol]
TgCRND8 mice [1]
  spatial learning performance compared with non-Tg littermates: indistinguishable from that of their non-Tg littermates; also recorded: indistinguishable from nontransgenic littermates
  spatial learning performance compared with untreated TgCRND8 littermates: significantly better behavioural performance compared to untreated TgCRND8 mice; also recorded: significantly better than untreated TgCRND8 littermates
TgCRND8 mice [1]; listed as AZD-103
  spatial learning performance compared with non-Tg littermates: indistinguishable from non-Tg littermates
  spatial learning performance compared with untreated TgCRND8 littermates: significantly better than untreated TgCRND8 littermates
TgCRND8 mice [1]; [5]
  spatial learning performance compared with non-Tg littermates: indistinguishable from nontransgenic littermates
  spatial learning performance compared with untreated TgCRND8 littermates: improved behavioral performance
TgCRND8 mice [1]; [6]
  effect on cognition: Sustained effects
TgCRND8 mice [1]; TgCRND8 mice, 0.3-30 mg/kg/d orally, tested at 4 months of age
  spatial memory, dose-response: dose-dependent improvement
TgCRND8 mice [1]; [7]
  cognitive performance compared with non-Tg mice: approached that of nontransgenic mice
  cognitive performance compared with untreated TgCRND8 mice: significant behavioral improvement
TgCRND8 mice [1]; prophylactic, 6 weeks to 4 months of age, listed as AZD-103
  cognitive performance compared with non-Tg mice: approached that of non-Tg mice
TgCRND8 mice [1]; prophylactic, 6 weeks to 4 months of age, listed as Scyllo-cyclohexanehexol
  cognitive performance compared with non-Tg mice: indistinguishable from nontransgenic littermates on days 4 and 5 of testing
TgCRND8 mice [1]; [8]
  cognitive performance compared with non-Tg littermates: indistinguishable from nontransgenic littermates; also recorded: approached that of nontransgenic littermates
  cognitive performance compared with untreated TgCRND8 mice: significantly better cognitive function compared to untreated TgCRND8 littermates
[2]
  synaptophysin reactivity / synaptic loss: unchanged
[2]; listed as AZD-103
  synaptophysin reactivity / synaptic loss: unchanged
[2]; [5]
  synaptophysin reactivity / synaptic loss: no effect on synaptic loss
TgCRND8 mice [3]; [9]
  Mean Plaque Size (μm^2): 336 ± 6* μm^2
  Total Plaque Area (μm^2): 420027 ± 14986* μm^2
TgCRND8 mice [3]; [10]
  Mean Plaque Size (μm^2): 103 ± 4* μm^2
  Total Plaque Area (μm^2): 63847 ± 2895 μm^2
TgCRND8 mice [3]; [11]
  Mean Plaque Size (μm^2): 339 ± 10† μm^2
  Total Plaque Area (μm^2): 262379 ± 5373† μm^2
TgCRND8 mice [3]
  amyloid burden in hippocampus and cerebral cortex: significantly decreased amyloid burden
TgCRND8 mice [3]; listed as AZD-103
  amyloid burden in hippocampus and cerebral cortex: significantly decreased amyloid burden
TgCRND8 mice [3]; [6]
  effect on pathology: Sustained effects
TgCRND8 mice [3]; [12]
  percent area of the brain covered with plaques: significantly reduced
  plaque number: significantly reduced
  plaque size: significantly reduced
TgCRND8 mice [3]; TgCRND8 mice, 0.3-30 mg/kg/d orally, 4 months of age, 6F3D immunostaining
  plaque count, dose-response: dose-dependent decrease; also recorded: improvement
TgCRND8 mice [3]; [13]
  percent area of the brain covered by plaques, reduction: 14±0.5 % reduction
  plaque number reduction: 13±0.3 % reduction
  plaque size reduction: 16±0.4 % reduction
TgCRND8 mice [3]; TgCRND8 mice, one month of treatment from 5 months of age
  plaque burden in hippocampus: lower plaque burden
TgCRND8 mice [3]; [14]
  Mean Plaque Size (μm^2): 336 ± 6* μm^2
  Total Plaque Area (μm^2): 420027 ± 14986* μm^2
  Total Plaque Count: 1260 ± 27
TgCRND8 mice [3]; TgCRND8 mice, prophylactic, 6 months of age
  mean plaque size: smaller mean plaque size
TgCRND8 mice [3]; TgCRND8 mice, prophylactic, at 4 and 6 months of age
  all measures of plaque burden: sustained decrease in all measures of plaque burden
[4]
  astrogliosis: did not prevent the astrogliosis
[4]; listed as Scyllo-cyclohexanehexol
  astrogliosis: no effect

Reference: US20070197452A1, “Treatment of amyloid-related diseases” (priority 2006, published 2007)
